Measurements published in US20230201188A1, “COMPOSITIONS AND METHODS FOR TREATING LEUKEMIA” (Augusta University Research Institute, Inc., priority 2020, published 2023).
One block for each compound: values may come before it.

Key:
[1] = system: patient-derived ATL cells; assay: ATL patient-derived cell viability; assay type: cell-based; details: various concentrations, FIG. 1B
Protocol: (§1) HUT 102 cells and patient-derived ATL cells were treated with various concentrations of mJJ64C (Compound 17) or mJJ64 (Compound 1). Cell viability was determined.

Akt3 = Akt3 (Homo sapiens, UniProt Q9Y243); assay: Akt3 inhibition (no method described)
b-cat = b-cat gene expression in HUT102 cells (RT-PCR); assay type: cell-based; details: at 2 uM and above, FIG. 2
Protocol: (§2) HUT102 cells were treated with different concentrations of Compound 17 (0.5 uM, 1 uM, 2 uM and 4 uM). Expression of b-cat, c-myc, and survivin were evaluated using RT-PCR.

c-myc = c-myc gene expression in HUT102 cells (RT-PCR); assay type: cell-based; details: at 2 uM and above, FIG. 2
Protocol: as §2

survivin = survivin gene expression in HUT102 cells (RT-PCR); assay type: cell-based; details: at 2 uM and above, FIG. 2
Protocol: as §2

HUT102 cells = assay: HUT102 cell viability; assay type: cell-based; details: various concentrations, FIG. 1A
Protocol: as §1

Chain of Akt3 (Q9Y243 whole entry): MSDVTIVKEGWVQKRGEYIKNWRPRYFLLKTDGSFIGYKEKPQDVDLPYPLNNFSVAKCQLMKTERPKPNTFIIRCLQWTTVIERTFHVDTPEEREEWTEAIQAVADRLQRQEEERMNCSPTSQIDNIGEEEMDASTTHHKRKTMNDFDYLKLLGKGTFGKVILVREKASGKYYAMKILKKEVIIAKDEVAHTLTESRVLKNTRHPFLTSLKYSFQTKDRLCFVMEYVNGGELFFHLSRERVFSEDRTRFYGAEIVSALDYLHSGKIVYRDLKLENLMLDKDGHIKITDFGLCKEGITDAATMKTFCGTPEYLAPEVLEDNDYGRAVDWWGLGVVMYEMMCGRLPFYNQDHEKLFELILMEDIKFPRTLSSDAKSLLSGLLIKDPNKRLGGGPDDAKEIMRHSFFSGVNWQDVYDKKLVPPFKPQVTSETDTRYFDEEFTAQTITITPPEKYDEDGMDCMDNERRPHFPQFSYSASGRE

Akt3 activity (Akt3): selectively inhibits Akt3 activity
SMILES: O=C(Nc1ccc(Nc2ccncc2)cc1)c1ccc(Nc2ccnc3ccc([N+](=O)[O-])cc23)cc1 [Compound 1, 4-[(6-nitroquinolin-4-yl)amino]-N-[4-(pyridin-4-ylamino)phenyl]benzamide]
cell viability [1]: reduce cell viability

SMILES: O=C(Nc1cccc(Nc2ccncc2)c1)c1cccc(Nc2ccnc3ccc(F)cc23)c1 [Compound 17]
expression of b-cat (b-cat): significantly inhibits | expression of c-myc (c-myc): significantly inhibits | expression of survivin (survivin): significantly inhibits

SMILES: O=C(O)c1ccc2nccc(Nc3ccc(C(=O)Nc4ccc(Nc5ccncc5)cc4)cc3)c2c1 [Compound 18]
cell viability (HUT102 cells): reduce cell viability
